Measurements taken from patent US6586468B1, “ω-substituted phenyl-prostaglandin E derivatives and drugs containing the same as the active ingredient” (Ono Pharmaceutical Co., Ltd., priority 1998, dated 2003).

Tests used:
EP4 = biological target: T1, EP4 (Mus musculus, UniProt P32240); experiment: Binding assay using expression CHO cell of prostanoid receptor subtype, [3H]-PGE2 binding inhibition (EP4); details: membrane fraction of CHO cells expressing mouse EP4; [3H]-PGE2 2.5 nM; Ki=IC50/(1+([C]/Kd)); read-out: Dissociation Constant Ki (μM) EP4
T1 construct: expressed in transfected cells; host or cells: CHO cells (membrane fraction)
Experimental: (§1) (i) Binding assay using Expression cell of prostanoids receptor subtype
(§2) The preparation of membrane fraction was carried out according to the method of Sugimoto et al. [J. Biol. Chem., 267, 6463-6466 (1992)], using expression CHO cell of the prostanoids receptor subtype (mouse EP1, EP2, EP3α, EP4 and human IP).
(§3) The standard assay mixture containing membrane fraction (0.5 mg/ml) and [^3H]-PGE2 in a final volume of 200 μl was incubated for 1 hour at room temperature. The reaction was terminated by addition of ice-cooled buffer (3 ml). The mixture was filtered through a GF/B glass filter under reduced pressure. The radioactivity associated with the filter was measured by liquid scintillation counting.
(§4) Kd and Bmax values were determined from Scatchard plots [Ann. N. Y. Acad. Sci., 51, 660 (1949)]. Non-specific binding was calculated as the binding in the presence of an excess (2.5 μM) of unlabeled PGE2. In the measurement of ^3H-PGE2 binding inhibitory activity, [3H]-PGE2 (2.5 nM) and various concentrations of the compounds of the present invention were added. The following buffer was used in all reactions.
(§5) Buffer; 10 mM potassium phosphate (pH 6.0), 1 mM EDTA, 10 mM MgCl2, 0.1 M NaCl.
(§6) The dissociation constant Ki (μM) of each compound was calculated by the following equation.

EP3α = biological target: T2, EP3α (Mus musculus, UniProt P30557); experiment: Binding assay using expression CHO cell of prostanoid receptor subtype, [3H]-PGE2 binding inhibition (EP3α); details: membrane fraction of CHO cells expressing mouse EP3α; [3H]-PGE2 2.5 nM; Ki=IC50/(1+([C]/Kd)); read-out: Dissociation Constant Ki (μM) EP3α
T2 construct: expressed in transfected cells; host or cells: CHO cells (membrane fraction)
T2 sequence (P30557 1-365): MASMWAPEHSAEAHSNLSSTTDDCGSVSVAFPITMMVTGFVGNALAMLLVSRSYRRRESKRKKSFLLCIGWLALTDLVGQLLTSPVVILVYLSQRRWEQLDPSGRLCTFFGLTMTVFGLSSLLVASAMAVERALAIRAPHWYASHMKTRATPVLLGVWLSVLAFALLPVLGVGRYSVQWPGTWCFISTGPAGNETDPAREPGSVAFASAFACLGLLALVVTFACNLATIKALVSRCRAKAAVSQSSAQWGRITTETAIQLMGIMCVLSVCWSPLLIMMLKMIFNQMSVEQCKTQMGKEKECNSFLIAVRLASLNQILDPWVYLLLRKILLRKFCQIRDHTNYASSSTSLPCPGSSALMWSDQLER
Experimental: as §1, §2, §3, §4, §5, §6

T1 sequence (P32240 whole entry): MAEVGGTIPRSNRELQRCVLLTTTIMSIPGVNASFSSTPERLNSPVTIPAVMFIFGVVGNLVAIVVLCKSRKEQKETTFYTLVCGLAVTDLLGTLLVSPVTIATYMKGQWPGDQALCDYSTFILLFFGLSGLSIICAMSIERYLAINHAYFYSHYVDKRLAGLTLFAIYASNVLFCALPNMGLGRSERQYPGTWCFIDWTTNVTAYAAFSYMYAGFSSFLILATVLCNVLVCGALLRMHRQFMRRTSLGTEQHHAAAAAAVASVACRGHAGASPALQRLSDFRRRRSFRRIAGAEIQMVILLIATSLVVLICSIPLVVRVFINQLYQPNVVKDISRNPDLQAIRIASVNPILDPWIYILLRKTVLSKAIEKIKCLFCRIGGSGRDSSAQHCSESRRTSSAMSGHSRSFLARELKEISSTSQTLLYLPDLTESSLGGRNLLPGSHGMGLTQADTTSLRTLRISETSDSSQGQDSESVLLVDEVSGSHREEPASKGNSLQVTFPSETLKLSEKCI

Ki (EP4) [µM]	Ki (EP3α) [µM]	SMILES
0.0026	1.4	COCc1cccc(C[C@H](O)/C=C/[C@H]2CCC(=O)[C@@H]2C/C=C\CCCC(=O)O)c1 [2 (15), (15α)-9-oxo-15-Hydroxy-16-(3-methoxymethylphenyl)-17,18,19,20-tetranorprost-5Z,13E-dienoic Acid]
0.0059	0.35	CCCOCc1cccc(CC(O)/C=C/[C@@H]2[C@@H](C/C=C\CCCC(=O)O)[C@H](F)C[C@H]2O)c1 (stereo partly drawn) [4 (12), (9β,11α,15ξ)-9-Fluoro-11,15-dihydroxy-16-(3-propyloxymethylphenyl)-17,18,19,20-tetranorprost-5Z,13E-dienoic Acid]
0.003	> 10	Cc1cc(C[C@H](O)/C=C/[C@H]2[C@H](O)CC(=O)[C@@H]2CCCCCCC(=O)O)ccc1O [2 (4), (11α,15α)-9-oxo-11,15-dihydroxy-16-(3-methyl-4-hydroxyphenyl)-17,18,19,20-tetranorprost-13E-enoic Acid]
0.0015	0.04	CCOCc1cccc(C[C@H](O)/C=C/[C@@H]2[C@@H](C/C=C\CCCC(=O)O)[C@H](Cl)C[C@H]2O)c1 [8 (6), (9β,11α,15α)-9-Chloro-11,15-dihydroxy-16-(3-ethoxymethylphenyl)-17,18,19,20-tetranorprost-5Z,13E-dienoic Acid]
0.008	6	CCOCc1cccc(CC(O)/C=C/[C@H]2[C@H](O)CC(=O)[C@@H]2CCc2ccc(C(=O)O)cc2)c1 (stereo partly drawn) [5 (12), (11α,15α)-9-oxo-11,15-Dihydroxy-16-(3-ethoxymethylphenyl)-1,6-(1,4-phenylene)-2,3,4,5,17,18,19,20-octanorprost-13E-enoic Acid]
0.006	0.82	COCc1cccc(C[C@H](O)/C=C/[C@H]2[C@H](O)CC(=O)[C@@H]2CCCCCCC(=O)O)c1 [Example 2, (11α,15α)-9-oxo-11,15-Dihydroxy-16-(3-methoxymethylphenyl)-17,18,19,20-tetranorprost-13E-enoic Acid]
0.067	0.048	COc1ccc(C[C@H](O)/C=C/[C@H]2[C@H](O)CC(=O)[C@@H]2C/C=C\CCCC(=O)O)cc1 [reference compound]
0.032	0.011	Cc1ccc(C[C@H](O)/C=C/[C@H]2[C@H](O)CC(=O)[C@@H]2C/C=C\CCCC(=O)O)cc1 [reference compound]
0.0036	3.2	COCc1cc(CC(O)/C=C/[C@@H]2[C@@H](C/C=C\CCCC(=O)O)[C@H](Cl)C[C@H]2O)ccc1O (stereo partly drawn) [Example 4, (9β,11α,15ξ)-9-Chloro-11,15-dihydroxy-16-(3-methoxymethyl-4-hydroxyphenyl)-17,18,19,20-tetranorprost-5Z,13E-dienoic Acid]
0.01	0.54	CCOCc1cccc(C[C@H](O)/C=C/[C@H]2[C@H](O)CC(=O)[C@@H]2C/C=C\CCCC(=O)O)c1 [2 (11), (11α,15α)-9-oxo-11,15-Dihydroxy-16-(3-ethoxymethylphenyl)-17,18,19,20-tetranorprost-5Z,13E-dienoic Acid]
0.0016	0.12	O=C(O)CCCCCC[C@H]1C(=O)C[C@@H](O)[C@@H]1/C=C/[C@@H](O)Cc1cccc(CCF)c1 [2 (1), (11α,15α)-9-oxo-11,15-Dihydroxy-16-[3-(2-fluoroethyl)phenyl]-17,18,19,20-tetranorprost-13E-enoic Acid]
